Test [1] has as its target carbonic anhydrase. The note with it: read-out: Kd or Ki; cited from earlier work.
In test [2] the target is bovine carbonic anhydrase (BCA) (Bos taurus, UniProt P00921). The test can be described thus: biochemical. Type of test: binding.

We go through two compounds from article PMC3433162 (Analytical chemistry, 2012).

Sequence of bovine carbonic anhydrase (BCA) (P00921 whole entry): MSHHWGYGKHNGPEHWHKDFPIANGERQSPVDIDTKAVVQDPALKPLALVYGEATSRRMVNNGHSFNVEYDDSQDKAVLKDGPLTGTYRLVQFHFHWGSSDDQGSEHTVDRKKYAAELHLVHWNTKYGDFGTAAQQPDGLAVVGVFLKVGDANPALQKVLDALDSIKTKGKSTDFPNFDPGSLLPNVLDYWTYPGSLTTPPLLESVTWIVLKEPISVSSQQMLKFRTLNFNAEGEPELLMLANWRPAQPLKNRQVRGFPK

Take methane sulfonamide: the Kd – broadly, a measure of binding affinity in units of concentration – in test [1] was 70 to 320 µM.
On to `Cc1ccc(S(N)(=O)=O)cc1` [4-methylbenzene sulfonamide], for which, in test [2], the Kd turned out to be 0.29 µM.
